Data reported in US12281363B2, “Methods for detecting antiviral-drug resistant virus” (Secretary of State for Health and Social Care, priority 2018, dated 2025).
Read-outs that look alike come from different tables or passages of the source.

Tested on: HSV-1
Experiment: Plaque reduction assay, HSV-1 clinical isolates on Vero cells
Type: cell-based
Conditions: Human alphaherpesvirus 1, Vero
Text: Viral isolates were used to infect a sub-confluent monolayer of Vero cells at a concentration of 75 or 50 plaque forming units (PFU) per well for HSV-1 and HSV-2, respectively. […] CMC medium typically used to create a semisolid interface and prevents indiscrimate viral spreading. Other materials (e.g. agar) may also be used to create this interface.
Cells were fixed with 10% formalin and stained with crystal violet before enumeration of the plaques (microscopic observation or use of fluorescent antibodies for detection is also suitable). The data obtained from these experiments were then expressed as percent inhibition of viral infectivity relative to the no drug control.
Definitions of phenotypic drug susceptibility classification as sensitive or resistant were as follows: ACV, <3 μM or >40 μM; PCV, <10 μM or >40 μM; CDV, <24 μM or >30 μM; FOS, <250 μM or >400 μM; and ACV, <6.5 μM or >40 μM; PCV, <38 μM or >40 μM; FOS, <250 μM or >400 μM for HSV-1 and HSV-2, respectively. Any IC50 values falling in between these sensitive and resistant cut-offs were reported as intermediate resistance.
The phenotype (i.e. reactivity to a drug) of the virus was characterised by the plaque reduction assay as described above.

With `O=C(O)P(=O)(O)O` [Foscarnet, foscarnet] the IC50 (72 h, isolate HPG053, HSV-1 pol L802R + A834S (2405T>G, 2500G>T), also TK R176W, read-out: Drug susceptibility (IC50 value)) was 626 µM, the IC50 (isolate HPG002, HSV-1 pol E992K (2974G>A), also TK insert (G) nt 430-436, pol A1169T, read-out: Drug susceptibility (IC50 value)) was < 50 µM and the IC50 (isolate HPG002, HSV-1 pol E992K (2974G>A), also TK insert (G) nt 430-436, pol A1169T, read-out: Drug susceptibility Foscarnet (FOS)) was < 250 µM. For the same compound, the IC50 (isolate HPG003, HSV-1 TK Y172S (515A>C), read-out: Drug susceptibility (IC50 value)) was 79 µM, the IC50 (isolate HPG003, HSV-1 TK Y172S (515A>C), read-out: Drug susceptibility Foscarnet (FOS)) was < 250 µM and the IC50 (isolate HPG005, HSV-1 TK A37V (110C>T), read-out: Drug susceptibility (IC50 value)) was 36.9 µM. The IC50 (isolate HPG005, HSV-1 TK A37V (110C>T), read-out: Drug susceptibility Foscarnet (FOS)) was < 250 µM, the IC50 (isolate HPG008, HSV-1 TK V204G (611T>G), read-out: Drug susceptibility (IC50 value)) was 58.3 µM and the IC50 (isolate HPG008, HSV-1 TK V204G (611T>G), read-out: Drug susceptibility Foscarnet (FOS)) was < 250 µM. For the same compound, the IC50 (isolate HPG009, HSV-1 pol E992K (2974G>A), also pol A1169T, read-out: Drug susceptibility (IC50 value)) was 77.5 µM, the IC50 (isolate HPG009, HSV-1 pol E992K (2974G>A), also pol A1169T, read-out: Drug susceptibility Foscarnet (FOS)) was < 250 µM and the IC50 (isolate HPG010, HSV-1 TK Q125* (373C>T), read-out: Drug susceptibility (IC50 value)) was 46.7 µM. For the same compound, the IC50 (isolate HPG010, HSV-1 TK Q125* (373C>T), read-out: Drug susceptibility Foscarnet (FOS)) was < 250 µM, the IC50 (isolate HPG011, HSV-1 TK Q125* (373C>T), read-out: Drug susceptibility (IC50 value)) was 56 µM and the IC50 (isolate HPG011, HSV-1 TK Q125* (373C>T), read-out: Drug susceptibility Foscarnet (FOS)) was < 250 µM. For the same compound, the IC50 (isolate HPG013, HSV-1 TK M121I (363G>A), read-out: Drug susceptibility (IC50 value)) was 78 µM, the IC50 (isolate HPG013, HSV-1 TK M121I (363G>A), read-out: Drug susceptibility Foscarnet (FOS)) was < 250 µM and the IC50 (isolate HPG013, HSV-1 pol D83A (248A>C), also TK M121I, pol A1169T, read-out: Drug susceptibility (IC50 value)) was 78 µM. The IC50 (isolate HPG013, HSV-1 pol D83A (248A>C), also TK M121I, pol A1169T, read-out: Drug susceptibility Foscarnet (FOS)) was < 250 µM, the IC50 (isolate HPG014, HSV-1 pol A1115T (3343G>A), read-out: Drug susceptibility (IC50 value)) was 141 µM and the IC50 (isolate HPG014, HSV-1 pol A1115T (3343G>A), read-out: Drug susceptibility Foscarnet (FOS)) was < 250 µM. For the same compound, the IC50 (isolate HPG014, HSV-1 pol R993C (2977C>T), read-out: Drug susceptibility (IC50 value)) was 141 µM, the IC50 (isolate HPG014, HSV-1 pol R993C (2977C>T), read-out: Drug susceptibility Foscarnet (FOS)) was < 250 µM and the IC50 (isolate HPG014, HSV-1 pol T54A (160A>G), read-out: Drug susceptibility (IC50 value)) was 141 µM. For the same compound, the IC50 (isolate HPG014, HSV-1 pol T54A (160A>G), read-out: Drug susceptibility Foscarnet (FOS)) was < 250 µM, the IC50 (isolate HPG015, HSV-1 pol 966stop or F965_I966insF (2892_2893insT to 2895_2896insT), read-out: Drug susceptibility (IC50 value)) was 162 µM and the IC50 (isolate HPG015, HSV-1 pol 966stop or F965_I966insF (2892_2893insT to 2895_2896insT), read-out: Drug susceptibility Foscarnet (FOS)) was < 250 µM. The IC50 (isolate HPG018, HSV-1 TK frameshift (881delC to 885delC), read-out: Drug susceptibility (IC50 value)) was 66.7 µM, the IC50 (isolate HPG018, HSV-1 TK frameshift (881delC to 885delC), read-out: Drug susceptibility Foscarnet (FOS)) was < 250 µM and the IC50 (isolate HPG018, HSV-1 pol P1199T (3595C>A), also TK deletion (C) nt 881-885, pol A1169T, read-out: Drug susceptibility (IC50 value)) was 66.7 µM. For the same compound, the IC50 (isolate HPG018, HSV-1 pol P1199T (3595C>A), also TK deletion (C) nt 881-885, pol A1169T, read-out: Drug susceptibility Foscarnet (FOS)) was < 250 µM, the IC50 (isolate HPG019, HSV-1 pol K750T (2249A>C), also TK deletion (G) nt 430-436, pol A1169T, read-out: Drug susceptibility (IC50 value)) was 190 µM and the IC50 (isolate HPG019, HSV-1 pol K750T (2249A>C), also TK deletion (G) nt 430-436, pol A1169T, read-out: Drug susceptibility Foscarnet (FOS)) was < 250 µM. For the same compound, the IC50 (isolate HPG020, HSV-1 pol S911N (2732G>A), also pol A1169T, read-out: Drug susceptibility (IC50 value)) was 99.3 µM, the IC50 (isolate HPG020, HSV-1 pol S911N (2732G>A), also pol A1169T, read-out: Drug susceptibility Foscarnet (FOS)) was < 250 µM and the IC50 (isolate HPG021, HSV-1 pol R681Q (2042G>A), also TK deletion (G) nt 430-436, read-out: Drug susceptibility (IC50 value)) was 156 µM. The IC50 (isolate HPG021, HSV-1 pol R681Q (2042G>A), also TK deletion (G) nt 430-436, read-out: Drug susceptibility Foscarnet (FOS)) was < 250 µM, the IC50 (isolate HPG021, HSV-1 pol T839A (2515A>G), also TK deletion (G) nt 430-436, read-out: Drug susceptibility (IC50 value)) was 156 µM and the IC50 (isolate HPG021, HSV-1 pol T839A (2515A>G), also TK deletion (G) nt 430-436, read-out: Drug susceptibility Foscarnet (FOS)) was < 250 µM. For the same compound, the IC50 (isolate HPG025, HSV-1 pol E850Q (2548G>C), also TK R216C, read-out: Drug susceptibility (IC50 value)) was 99.1 µM, the IC50 (isolate HPG025, HSV-1 pol E850Q (2548G>C), also TK R216C, read-out: Drug susceptibility Foscarnet (FOS)) was < 250 µM and the IC50 (isolate HPG026, HSV-1 pol E850Q (2548G>C), also TK R216C, pol A1169T, read-out: Drug susceptibility (IC50 value)) was 68.3 µM. For the same compound, the IC50 (isolate HPG026, HSV-1 pol E850Q (2548G>C), also TK R216C, pol A1169T, read-out: Drug susceptibility Foscarnet (FOS)) was < 250 µM, the IC50 (isolate HPG027, HSV-1 TK V204G (611T>G), also pol S914L, A1169AT, read-out: Drug susceptibility (IC50 value)) was 216 µM and the IC50 (isolate HPG027, HSV-1 TK V204G (611T>G), also pol S914L, A1169AT, read-out: Drug susceptibility Foscarnet (FOS)) was < 250 µM. The IC50 (isolate HPG027, HSV-1 pol S914L (2741C>T), also TK V204G, pol A1169T, read-out: Drug susceptibility (IC50 value)) was 216 µM, the IC50 (isolate HPG027, HSV-1 pol S914L (2741C>T), also TK V204G, pol A1169T, read-out: Drug susceptibility Foscarnet (FOS)) was < 250 µM and the IC50 (isolate HPG029, HSV-1 TK Y172S (515A>C), read-out: Drug susceptibility (IC50 value)) was 111 µM. The IC50 (isolate HPG029, HSV-1 TK Y172S (515A>C), read-out: Drug susceptibility Foscarnet (FOS)) was < 250 µM, the IC50 (isolate HPG031, HSV-1 pol E1120A (3359A>C), also a TK resistance mutation (footnote e), read-out: Drug susceptibility (IC50 value)) was 108 µM and the IC50 (isolate HPG031, HSV-1 pol E1120A (3359A>C), also a TK resistance mutation (footnote e), read-out: Drug susceptibility Foscarnet (FOS)) was < 250 µM. For the same compound, the IC50 (isolate HPG031, HSV-1 pol G139R (415G>C or 415G>A), also a TK resistance mutation (footnote e), read-out: Drug susceptibility (IC50 value)) was 108 µM, the IC50 (isolate HPG031, HSV-1 pol G139R (415G>C or 415G>A), also a TK resistance mutation (footnote e), read-out: Drug susceptibility Foscarnet (FOS)) was < 250 µM and the IC50 (isolate HPG032, HSV-1 TK 183* (437_438insA), read-out: Drug susceptibility (IC50 value)) was 100 µM. For the same compound, the IC50 (isolate HPG032, HSV-1 TK 183* (437_438insA), read-out: Drug susceptibility Foscarnet (FOS)) was < 250 µM.
